Counter-ions that a name gives are not always drawn. Like-named read-outs stand apart in the source and are kept apart here. Bridge positions count the residues as written; N and C are the ends. Peptide text beside a SMILES is read from it.
Key:
thrombin = tested on: thrombin; parameters: method as in PMID 143965; settings: cited from earlier work
trypsin = tested on: trypsin; parameters: method as in PMID 143965; settings: cited from earlier work
plasmin [1] = tested on: plasmin; parameters: method as in PMID 143965; settings: cited from earlier work
plasma kallikrein = tested on: plasma kallikrein; parameters: method as in PMID 143965; settings: cited from earlier work
KLK5 [2] = target: T1, KLK5 (Homo sapiens, UniProt Q9Y337); experiment: Protease activity assay: inhibition of recombinant KLK5 (Boc-VPR-AMC substrate); format: biochemical; settings: for selectivity for KLK5 against select KLKs in skin: KLK5 versus other skin KLKs; for IC50: n = 3, 10 nM KLK5, Boc-VPR-AMC 100 µM, PBS pH 8.0, read-out: IC50 (n = 3)/nM for KLKs: KLK5
T1 construct: purchased R&D Systems 1108-SE
T1 sequence (Q9Y337 23-293): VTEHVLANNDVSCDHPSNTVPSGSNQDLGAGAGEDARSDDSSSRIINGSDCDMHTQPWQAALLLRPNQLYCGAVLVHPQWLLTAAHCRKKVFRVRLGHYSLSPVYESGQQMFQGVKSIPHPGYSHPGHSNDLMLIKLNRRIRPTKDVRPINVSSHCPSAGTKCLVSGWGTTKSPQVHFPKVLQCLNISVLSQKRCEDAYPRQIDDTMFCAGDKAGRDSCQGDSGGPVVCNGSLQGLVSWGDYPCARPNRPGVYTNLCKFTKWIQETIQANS
Procedure: Inhibitory activity against KLK5 was evaluated using the fluorogenic substrate Boc-VPR-AMC for KLK5 (Table ). […] The P1–P1′ reactive site (Arg5 to Ser6) is critical for inhibitor binding, with the P1′ position contributing up to 50% of the total association energy. , The conserved serine at P1′ in Bowman-Birk inhibitors (BBIs) is essential for function. […] Preservation of serine in the P1′ position restored inhibitory activity seen in 5 and 6. Preserving the native serine restored efficacy to the nanomolar range (5: 31 ± 7 nM; 6: 114 ± 11 nM).
Methods for biological experiment
SFTI analogues were created by individual amino acid substitutions in PYMOL (Python Molecular Graphics System) using the existing solution NMR structure of native SFTI - 1 (1JBL) found in the RCSB (Research Collaboratory for Structural Bioinformatics) database. Residues of 2 were mutated as follows: L5R, I10H, and F12W with conserved SFTI-1 backbone structure. Other SFTI based analogues were further modified using PYMOL. Currently, there are no SFTI-1 and Kallikrein 5 co-crystal structures found in the RCSB database. Superimposing the existing crystal structure of SFTI-1 and Trypsin complex (4XOJ) with Kallikrein 5 crystal structure (2PSX) was performed with PYMOL. Ab-initio docking between KLK5 and 2 were performed with HADDOCK 2.4 1, 2, with binding active site parameter set to Arg2, Cys3, Thr4, Arg5, Ser6 for 2 and Ser195, His57, and Asp102 for KLK5 catalytic triad. PRODIGY 3-5, set at 25 °C, was used to predict dissociation constant and binding interactions of docked clusters. Structural visualization and alignment were performed with PYMOL 6, and comparative sequence analysis was performed with MEGA11 7.
A fluorescence spectrometer using SpectraMax® i3x plate reader (Molecular Devices, United States) was used to measure the relative fluorescence unit (RFU) on a 96-well black microplate (Grenier Bio-one, cat no. 655074). The wavelengths were set to 360/460 nm (excitation/emission) for the substrate Boc-VPR-AMC (Bachem AG, cat no. 4003460) and 320/405nm for the substrate Mca-RPKPVE-Nval-WRK(Dnp)-NH2 Fluorogenic MMP Substrate (R&D Systems Biotechne, cat no.ES002). The Boc-VPR-AMC stock solution was prepared by dissolving the solid form in dimethyl sulfoxide to 100 mM. Mca-RPKPVE-Nval-WRK(Dnp)-NH2 fluorogenic MMP Substrate is supplied as stock solution at 10.0 mg/mL in dimethyl sulfoxide. Boc-VPR-AMC was used as a substrate for KLK5, 8 and 14. Mca-RPKPVE-Nval-WRK(Dnp)-NH2 was used as a substrate for KLK7. The ligand-only solution serves as a negative control (minimum RFU, 100% inhibition), and enzyme-only was served as positive (maximum RFU, 0% inhibition). The activities of proteases were measured and readout against the standard curve made in serial dilutions of tested recombinant KLKs, ranging from 0nM to 60nM. Each assay was done in triplicates and repeated at least for three times […]
Assessment of analogue mediated inhibition of KLK5, KLK7, KLK8, and KLK14 […]
Recombinant KLK5 (R&D Systems, cat no. 1108-SE) was diluted to a final concentration of 10 nM in 1X PBS (pH 8.0). KLK5 was pre -incubated on ice for 1 hour with serial dilutions of SFTI-derived analogues to assess inhibitory activity. After incubation, 20 µL of each mixture was transferred to we lls of a 96-well microplate in triplicates. The enzymatic reaction was initiated by adding 100 µL of Boc -VPR-AMC substrate (final concentration 100 µM) to each well. Fluorescence (RFU) was measured using a SpectraMax® i3x plate reader with chamber temperature maintained at 37°C. Readings were started at 0 minutes (baseline) and another […]
Recombinant KLK7 (R&D Systems , cat no. 2624-SE) and KLK14 (R&D Systems, cat no. 2664-SE) were activated by adding 1 mM CaCl ₂ 0.05% v/v Brij-35 (Sigma, cat no. […]
incubated at 37°C for 1 hour. Reactions were stopped by adding EDTA to a final concentration of 50 mM (Sigma, cat no. EDS-100G) KLK8 (catalytic domain only; R&D Systems, cat no. 2025-SE-010) was activated separately with 11 nM lysyl […]

KLK7 [3] = target: T2, KLK7 (Homo sapiens, UniProt P49862); experiment: Protease activity assay: inhibition of recombinant KLK7 (Mca-RPKPVE-Nval-WRK(Dnp)-NH2 substrate); format: biochemical; parameters: purchased R&D Systems 2624-SE; settings: n = 3; 100 nM KLK7, 37°C, 20 hours; read-out: IC50 (n = 3)/nM for KLKs: KLK7
Source text: using the following equation: […]
(1 picture or pasted object on this page, not shown here)

plasmin [4] = target: plasmin; parameters: method as in PMID 7543841; settings: read-out: Ki against trypsin-like plasmin; cited from earlier work
LEKTI-2 (Homo sapiens) = LEKTI-2 (Homo sapiens) (UniProt Q5DT21); settings: cited from earlier work
[5] = target: Kallikrein-related peptidase 5 (KLK5) (UniProt Q9Y337); experiment: enzyme inhibition assay (fluorogenic substrate); inhibition of KLK5 activity by the peptide, fluorogenic substrate Boc-VPR-AMC, n = 3; conditions in the Supporting Information
KLK8 [6] = target: T3, KLK8 (UniProt O60259 33-260); experiment: enzyme inhibition assay (fluorogenic substrate); selectivity: inhibition of KLK7, KLK8 or KLK14 activity by the peptide, n = 3; substrates and conditions in the Supporting Information
T3 construct: Kallikrein 8 (KLK8); construct and source are in the Supporting Information
T3 sequence (looked up): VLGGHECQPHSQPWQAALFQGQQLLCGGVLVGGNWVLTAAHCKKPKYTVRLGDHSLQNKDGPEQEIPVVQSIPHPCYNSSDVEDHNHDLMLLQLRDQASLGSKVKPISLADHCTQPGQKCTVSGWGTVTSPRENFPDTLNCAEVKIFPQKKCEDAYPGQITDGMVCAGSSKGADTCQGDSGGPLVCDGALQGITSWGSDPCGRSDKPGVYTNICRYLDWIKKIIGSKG

KLK14 [7] = target: T4, KLK14 (UniProt Q9P0G3); experiment: as above
T4 sequence (Q9P0G3 41-267, species assumed, looked up): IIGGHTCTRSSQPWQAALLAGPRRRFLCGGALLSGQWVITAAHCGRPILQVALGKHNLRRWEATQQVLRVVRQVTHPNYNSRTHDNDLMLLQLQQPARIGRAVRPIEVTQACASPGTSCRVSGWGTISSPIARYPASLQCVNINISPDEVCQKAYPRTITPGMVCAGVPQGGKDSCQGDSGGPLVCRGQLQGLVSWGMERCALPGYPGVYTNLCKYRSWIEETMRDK

KLK5 [8] = target: T1, KLK5; parameters: method as in Chen et al. (2016); settings: earlier work of the authors; ref Chen et al. (2016); read-out: IC50 (n = 3)/nM for KLKs: KLK5; cited from earlier work
KLK8 [9] = target: T5, KLK8 (Homo sapiens, UniProt O60259); parameters: method as in Chen et al. (2016); settings: ref Chen et al. (2016); read-out: IC50 (n = 3)/nM for KLKs: KLK8; cited from earlier work
T5 construct: purchased R&D Systems 2025-SE-010
T5 sequence (O60259 33-260): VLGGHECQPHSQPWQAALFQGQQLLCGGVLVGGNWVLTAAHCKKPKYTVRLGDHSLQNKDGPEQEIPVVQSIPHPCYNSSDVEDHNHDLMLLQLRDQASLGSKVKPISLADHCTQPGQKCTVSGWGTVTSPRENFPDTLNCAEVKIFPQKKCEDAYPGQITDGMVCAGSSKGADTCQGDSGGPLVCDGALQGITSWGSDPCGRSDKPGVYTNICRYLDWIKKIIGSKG

aprotinin (Bos taurus) = aprotinin (Bos taurus) (UniProt P00974); settings: cited from earlier work
KLK7 [10] = target: T2, KLK7; parameters: purchased R&D Systems 2624-SE; settings: prior findings, reference not given; cited from earlier work
Target sequence in this assay (P49862 30-253): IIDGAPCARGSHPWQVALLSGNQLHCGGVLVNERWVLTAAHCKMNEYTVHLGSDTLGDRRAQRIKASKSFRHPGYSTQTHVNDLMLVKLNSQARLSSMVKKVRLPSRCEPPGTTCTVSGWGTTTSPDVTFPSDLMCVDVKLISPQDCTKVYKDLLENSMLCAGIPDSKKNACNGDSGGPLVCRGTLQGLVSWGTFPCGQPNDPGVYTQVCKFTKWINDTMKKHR

KLK14 [11] = target: T6, KLK14 (Homo sapiens, UniProt Q9P0G3); settings: prior findings, reference not given; cited from earlier work
T6 construct: purchased R&D Systems 2664-SE
T6 sequence (Q9P0G3 25-251): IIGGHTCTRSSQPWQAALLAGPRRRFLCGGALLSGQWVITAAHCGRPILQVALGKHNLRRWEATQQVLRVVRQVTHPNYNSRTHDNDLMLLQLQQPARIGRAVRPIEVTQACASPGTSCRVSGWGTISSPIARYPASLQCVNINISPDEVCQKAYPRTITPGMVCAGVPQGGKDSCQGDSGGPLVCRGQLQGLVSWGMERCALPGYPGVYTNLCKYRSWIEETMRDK

Molecule: CCOC(=O)c1ccc(OC(=O)CCCCCN=C(N)N)cc1 [Gabexate mesylate]
- IC50 (thrombin): 110000 nM
- IC50 (trypsin): 9400 nM
- IC50 (plasmin [1]): 30000 nM
- IC50 (plasma kallikrein): 41000 nM

Molecule: C[C@@H](O)[C@@H]1NC(=O)[C@@H]2CSSC[C@H](NC(=O)[C@H](CCC(=O)O)NC(=O)[C@@H]3CCCN3C(=O)[C@@H]3CCCN3C(=O)[C@H](CO)NC(=O)[C@H](CO)NC(=O)[C@H](CCCNC(=N)N)NC1=O)C(=O)N[C@@H](Cc1c[nH]c3ccccc13)C(=O)N1CCC[C@H]1C(=O)N[C@@H](CC(N)=O)C(=O)NCC(=O)N[C@@H](CO)C(=O)N2 [compound 9] (cyclo(GSCTRSSPPECWPN); disulfide 3-11)
- selectivity for KLK5 against select KLKs in skin (KLK5 [2]): 4 fold
- IC50 (KLK5 [2]): 54 ± 6 nM
- IC50 (KLK7 [3]): 165 ± 12 nM

Molecule: C[C@@H](O)[C@@H]1NC(=O)[C@@H]2CSSC[C@H](NC(=O)[C@H](CCC(=O)O)NC(=O)[C@@H]3CCCN3C(=O)[C@@H]3CCCN3C(=O)[C@H](CO)NC(=O)[C@H](CO)NC(=O)[C@H](CCCNC(=N)N)NC1=O)C(=O)N[C@@H](Cc1c[nH]c3ccccc13)C(=O)N1CCC[C@H]1C(=O)N[C@@H](CC(N)=O)C(=O)NCC(=O)N[C@@H](Cc1ccc(O)cc1)C(=O)N2 [compound 10] (cyclo(GYCTRSSPPECWPN); disulfide 3-11)
- selectivity for KLK5 against select KLKs in skin (KLK5 [2]): 4 fold
- IC50 (KLK5 [2]): 56 ± 7 nM
- IC50 (KLK7 [3]): 240 ± 14 nM

Molecule: Aprotinin
- Ki (plasmin [4]): 0.07 nM

Molecule: KLK5 (from UniProt Q9Y337)
- Ki (LEKTI-2 (Homo sapiens)): 65 nM

Molecule: Sunflower trypsin inhibitor-1 (SFTI-1) 1 (peptide)
- IC50 [5]: 230 nM
- IC50 (KLK8 [6]): 1290 nM
- IC50 (KLK14 [7]): 30 nM

Molecule: Sunflower trypsin inhibitor-1 [compound 1]
- IC50 (KLK5 [8]): 230 ± 3 nM
- IC50 (KLK8 [9]): 1290 ± 51 nM

Molecule: plasmin (from UniProt P00747)
- Ki (aprotinin (Bos taurus)): 0.07 nM

B1: LEKTI-2: LEKTI-2, encoded by SPINK9, selective binding to KLK5 (protein, UniProt Q5DT21 20-86, looked up)
Serine protease inhibitor …: IECAKQTKQMVDCSHYKKLPPGQQRFCHHMYDPICGSDGKTYKNDCFFCSKVKKTDGTLKFVHFGKC
- inhibition of KLK7 (KLK7 [10]): without potently inhibiting
- inhibition of KLK14 (KLK14 [11]): without potently inhibiting

Source: article PMC12670400, “LEKTI-Grafted Sunflower Trypsin Inhibitor: A Potential Therapeutic for Skin Diseases” (Journal of Medicinal Chemistry, 2025)
